Results reported in US20160089434A1, “COMBINATIONS OF AN ANTI-PD-L1 ANTIBODY AND A MEK INHIBITOR AND/OR A BRAF INHIBITOR” (NOVARTIS AG, priority 2013, published 2016).

Columns and labels:
CT26 tumors = assay: CT-26 murine carcinoma syngeneic mouse model; assay type: in vivo, BALB/C mice; details: mono-therapy at 1 mg/kg orally once a day, after 18 days of treatment
Description: Female BALB/C mice (Charles River) were used. The animals received food and water ad libitum and were housed in compliance normal standard of care for Laboratory Animals. Tumors were established by subcutaneously implanting 5×10^4 CT26 cells in suspension into the right flanks of mice. Tumor […] were calculated using the equation (l×w^2)/2, where l and w refer to the larger and smaller dimensions collected at each measurement. Treatments began at day 11 after cell implantation with tumor size around 40-100 mm^3. Mice (n=10/group) were treated with Compound A at 1 mg/kg, orally once a day for 21 days, or anti-mouse antibodies, rat-IgG2a and αPD-L1 (10F.9G2 clone) at 10 mg/kg, intraperitoneally (i.p.) twice weekly for three weeks. Tumors were monitored and each animal was euthanized when it's tumor reached the endpoint volume of 2000 mm^3, ulcerated, or on the final day (Day 21), whichever came first. Percent tumor growth inhibition (% TGI) was defined as the difference between the mean tumor volume (MTV) of the designated control group and the MTV of the drug-treated group, expressed as a percentage of the MTV of the designated control group: % TGI=[1−(MTVdrug-treated/MTVcontrol)]×100.
Log-transformed tumor volume was analyzed using ANOVA, fitting a term for treatment. Differences between fitted treatment means were then calculated with associated raw p-values. […]

[1] = system: CT26 mouse colon carcinoma cells; assay: Cell growth inhibition of CT26 cells, CellTiter-Glo (CTG) assay; assay type: cell-based; details: 72 h, CT26 cells (KRAS G12D, MAPK1 and MET amplifications), 3 days, 10% FBS, read-out: IC50 value in cell proliferation inhibition
Description: CT26 mouse colon carcinoma cells from American Type Culture Collection (ATCC, cat#CRL-2638, lot#59227052) were cultured in RPMI with 10% fetal bovine serum (FBS) media. Cell growth inhibition was determined via CellTiter-Glo® (CTG) assay (Promega) according to the manufacturer's protocol. Approximately 24 hours after plating, cells were exposed to Compound A with three-fold serial dilutions. Cells were incubated with the compound in culture medium containing 10% FBS for 3 days. IC50 values were interpolated using the method of Levenberg & Marquardt and the equation: y=Vmax−{1−[xn/(Kn+xn)]}, where ‘K’ is equal to IC50 (Mager M E, Data Analysis in Biochemistry and Biophysics. New York: Academic Press. 1972).

pERK1/2 (T202/Y204) = assay: MAPK signaling inhibition in CT26 cells by western blot (pERK); assay type: cell-based, mouse; details: 24 hours
Description: MAPK signaling inhibition by Compound A from CT 26 cells were determined by western blot analysis. CT26 cells were treated with Compound A in culture medium containing 10% FBS for 24 hours. Proteins were extracted for immunoblotting with anti-ERK1/2 and pERK1/2 (T202/Y204) from Santa Cruz Biotechnology. The membranes were developed with Odyssey Infrared Imaging System (LI-COR Biosciences).

`CC(=O)Nc1cccc(-n2c(=O)n(C3CC3)c(=O)c3c(Nc4ccc(I)cc4F)n(C)c(=O)c(C)c32)c1` [Compound A, N-{3-[3-cyclopropyl-5-(2-fluoro-4-iodo-phenylamino)6,8-dimethyl-2,4,7-trioxo-3,4,6,7-tetrahydro-2H-pyrido[4,3-d]pyrimidin-1-yl]phenyl}acetamide] was tested, and the “TGI (tumor growth inhibition)” value (CT26 tumors) was 61%, the IC50 [1] was 20 nM and the “MAPK signaling inhibition measured by pERK” value (pERK1/2 (T202/Y204)) was “dose dependent MAPK signaling inhibition”.
